Source: ChEMBL document CHEMBL3507680, “University of Dundee, Gates Library screen for HepG2 cell viability”

Experiment: Human HepG2 cell viability assay in 384 well format
Assay type: toxicity, cell-based
Design: dose 125 nL, time 70.5 hour; concentration not given beside the values
Conditions: HepG2 cells, read-out: Inhibition

| SMILES | cytotoxicity at 70.5 h [%] |
| --- | --- |
| Cn1ccnc1C(=O)NC[C@@H]1OC[C@H]2CN(S(C)(=O)=O)CC[C@H]21 | -5.19 |
| CC(C)NC(=O)[C@H]1C[C@@H]2CN(C(=O)NC(C)C)C[C@H]1O2 | -10.3 |
| O=C(Cc1ccco1)N1C[C@H]2CCC[C@@]2(COCc2cccnc2)C1 | -10.4 |
| O=C(Cc1ccco1)N1C[C@H]2CCC[C@@]2(COc2cccnc2)C1 | -5.14 |
| O=C(Cc1ccco1)N1C[C@H]2CCC[C@@]2(COCC2CC2)C1 | -11.1 |
| Cc1cccc(COC[C@@]23CCC[C@@H]2CN(C(=O)Cc2ccco2)C3)n1 | -8.53 |
| Cc1nnc([C@H]2C[C@H]3CN(C(=O)Cc4ccc(F)cc4)CC[C@@H]3O2)o1 | -6.08 |
| Cc1cc2c(N3CCC(N(C)Cc4cnn(C)c4)CC3)ncnc2s1 | -3.32 |
| Cc1nccc(-c2ccccc2)c1C(=O)N1CC[C@](C)(O)C(C)(C)C1 | 1.9 |
| O=C1CCCCCN1CCC(=O)N1CCCC(c2ccn[nH]2)C1 (stereo not drawn) | -9.01 |
| Cc1ccc2c(c1)SCC(=O)N2CC(=O)N1CCCC1c1cc(C)on1 (stereo not drawn) | -1.98 |
| O=C(Nc1ccccc1)c1cc2n(n1)CCCN(C(=O)N1CCCC1)C2 | 22.6 |
| CNc1nc(C(=O)N2CCC3(CCCN(CC4CC4)C3=O)C2)cs1 (stereo not drawn) | -1.68 |
| CN1CCC(N(Cc2ccncc2)Cc2nc3c(s2)CCCC3)CC1 | -11.2 |
| O=C1CC[C@@H](CN(Cc2ccncc2)Cc2nc(-c3cccs3)no2)N1 | -3.48 |
| c1ccc(-c2nc3c(c(NCc4nnc5n4CCC5)n2)CCNC3)cc1 | -7.92 |
| Cc1ccnn1CCC(=O)N(Cc1ccsc1)CC(C)C | -2.24 |
| O=C1OC2(CCN(CC3CCCO3)CC2)CN1CCc1ccccc1 (stereo not drawn) | 2.25 |
| CN(CCc1ccccc1)C(=O)CN1C(=O)OC[C@@H]1c1ccccc1 | 23.5 |
| O=C1CCC(c2ccccc2)(c2ccccc2)CN1CCO | -3.47 |
| Cn1c(N2CCOCC2)nc2cc(C(=O)N3CC(O)CO3)ccc21 (stereo not drawn) | 32.1 |
| CN(C)C1(CNc2nccc(C3CCCC3)n2)CCOCC1 | -4.46 |

| SMILES | cytotoxicity at 70.5 h [%] |
| --- | --- |
| C[C@@H]1CN(C2(C(=O)N3CCSCC3)Cc3ccccc3C2)C[C@H](C)O1 | 2.94 |
| FC(F)(F)c1ccnc(N2CCCC(N3CCOCC3)C2)c1 (stereo not drawn) | 9.74 |
| Oc1ccccc1-c1cc(-c2nc(C3CC3)n[nH]2)[nH]n1 | -6.44 |
| Cc1ccc(-c2ccnc(N3CCC4(CC3)CNC(=O)C4)n2)c(C)n1 | 15.1 |
| C[C@@H]1CN(c2nc(N)nc3c2CCC3)C[C@]1(C)O | 1.03 |
| CCn1cncc1-c1nc2c([nH]1)CC(C)(C)CNC2=O | -3.18 |
| CC(C)(C)c1ccc(-n2ncc3c2CCCC3N)cc1 (stereo not drawn) | -3.43 |
| CCc1nc(C)c(CN2CCN(c3ncnc4scc(C)c34)CC2)[nH]1 | -9.72 |
| CCc1noc(C2CC(=O)N(CCN(C)C)C2)n1 (stereo not drawn) | -3.23 |
| CN1CCN2CCN(Cc3cc(=O)n4c5c(cccc35)CCC4)CC2C1 (stereo not drawn) | -13.5 |
| CCCc1n[nH]c(=O)n1Cc1ccccc1F | 2.4 |
| Cc1cc2cc(NC(=O)Cn3ncc(N4CCCC4)cc3=O)ccc2o1 | 15.3 |
| CSCC(=O)N1C[C@H](c2ccc(C)o2)[C@@H](N)C1 | -3.37 |
| Oc1cccc(CN2CCN(c3nccc(CCC(F)(F)F)n3)CC2)c1 | -3.66 |
| O=C(O)c1ccc(C2CCCN(C(=O)c3ccc[nH]3)C2)cc1 (stereo not drawn) | -6.26 |
| O=C1CC(C(=O)NCCN2CCOC2=O)c2cc(F)ccc2N1 (stereo not drawn) | 2.37 |
| CC(C)c1nnc(N2C[C@@H](CN(C)CCO)[C@@H](CO)C2)s1 | 12.7 |
| CS(=O)(=O)NCC(=O)N[C@H]1CN(CC2CC2)C[C@@H]1c1ccccc1 | -9.72 |
| O=C1CCC(CCC(=O)N2CCC2c2cccs2)=NN1 (stereo not drawn) | -13.3 |
| O=C(c1n[nH]c2c1CCC2)N1CCCC1c1nc(-c2ccccn2)no1 (stereo not drawn) | -3.03 |
| CCn1ccnc1CN1CCCC(N(C)CCc2ccccc2)C1 (stereo not drawn) | -1.22 |
| Cc1nccn1Cc1nnc(C2CCCN(c3ncccn3)C2)n1C (stereo not drawn) | 15.5 |

| SMILES | cytotoxicity at 70.5 h [%] |
| --- | --- |
| O=C1CN(CCCNC(=O)Nc2cccc(Cl)c2F)CCN1 | -2.99 |
| Cn1ccnc1CN(CCO)C(=O)c1cc2ccccc2o1 | 9.95 |
| COc1ccccc1S(=O)(=O)N1CCN(C)[C@@H]2CS(=O)(=O)C[C@@H]21 | 24.4 |
| Cc1n[nH]c(SCCNC2CCN(c3nc4ccccc4s3)CC2)n1 | 2 |
| CN(C)S(=O)(=O)CCNc1ncc2c(n1)CCN2c1ccccc1 | -6.26 |
| CNc1ccnc(NCCSc2nccn2C)n1 | -1.64 |
| Cc1cc(N2CCCN(C(=O)Cc3cc(F)cc(F)c3)CC2)ccn1 | -1.71 |
| CC1(C)[C@H]2CC=C(CN3CCCn4nc(C(=O)NCCO)cc4C3)[C@@H]1C2 | -4.77 |
| COc1cc(-c2cnnc(NCCSC)n2)cc(OC)c1OC | -5.18 |
| CCc1nn(C)c(Cl)c1CN(CCOC)Cc1cnn(C)c1 | 0.921 |
| Cc1ccc2nc(CN3CCC(O)(Cn4ccnc4)CC3)cc(O)c2c1 | -7.59 |
| Cc1ccsc1CCNC(=O)CCC(=O)NC1CCCC1 | -15.3 |
| Cn1ccnc1C1CCCN(C(=O)c2ccncc2F)C1 (stereo not drawn) | -5.94 |
| CCC[C@H]1CN(CCCO)C[C@@H]1NC(=O)Cn1cc(C)cn1 | -4.28 |
| O=C(c1coc(COc2cccc3cnccc23)n1)N1CCSCC1 | -5.09 |
| CCSCCNc1cc(C)nc2c(C)c(C)nn12 | -4.65 |
| COc1cccc(-c2n[nH]c3c2CN(C(=O)c2oc(C)cc2C)CC3)c1 | -0.91 |
| Cc1ccc([C@@H]2CN(S(=O)(=O)c3ccccc3)C[C@H]2N(C)C)cc1 | -9.61 |
| Cc1cnc(C)c(N2CCC3(CCCN(C4CCOCC4)C3=O)C2)n1 (stereo not drawn) | -8.78 |
| CSc1ccc(CN(CCO)C(=O)CCc2ccc(O)cc2)cc1 | -16.6 |
| Nc1ccc(-c2cc(O)cc(CCC3CCCCN3)c2)cn1 (stereo not drawn) | -5.09 |
| CCCN1CCC(N2CCOC(Cc3cccc(OC)c3)C2)CC1 (stereo not drawn) | 9.86 |

| SMILES | cytotoxicity at 70.5 h [%] |
| --- | --- |
| Cc1noc(C)c1CN1C[C@@H]2CC[C@H](C1)N(Cc1cc(F)cc(F)c1)C2 | -14.1 |
| COCCn1cncc1CN1CCC(C(C)=O)(c2ccccc2)CC1 | -15.1 |
| c1ccc(CN2CCC(Cc3noc(C4CC4)n3)CC2)cc1 | -5.84 |
| CNC(=O)[C@@H]1C[C@@H](n2cc(-c3ccc(Cl)cc3)nn2)CN1 | 13.9 |
| Cc1nnc(CN2C[C@H](NC(=O)C3CCOCC3)[C@@H](C(C)C)C2)s1 | -6.56 |
| CCc1nc(CC2CN(c3ncnc4sc(C)c(C)c34)CCO2)no1 (stereo not drawn) | -19.7 |
| CSc1ncccc1C(=O)N1C[C@H]2CC[C@@H]1CN(CC(=O)N(C)C)C2 | 45.6 |
| CN(C)C[C@H]1CC[C@@H](Cc2ccc3c(cnn3C)c2)O1 | -11.9 |
| Nc1ccnc(N2CCC(CCc3ccccc3)(C(=O)O)CC2)n1 | 14.5 |
| CNC(=O)[C@@H]1C[C@@H](NC(=O)c2ccc(OC)o2)CN1Cc1sccc1C | 1.26 |
| CCN1CC(C(=O)NCc2nn(CC)c3ccccc23)CCC1=O (stereo not drawn) | 10.8 |
| CCN1CCC2(CCC1=O)CN(c1cnc3ccccc3n1)CCN2C (stereo not drawn) | -2.99 |
| N[C@@H]1c2ccccc2C2(CCN(c3cc(C(F)(F)F)ccn3)CC2)[C@H]1O | 39.4 |
| COc1cccc(-c2noc(-c3ccc(NCCCO)nc3)n2)c1OC | 2.28 |
| Cc1nc(N2CCN(C)CC2)ncc1C(=O)N1CC[C@](C)(O)[C@H](C)C1 | -7.36 |
| CNCC(=O)N[C@H]1CN(c2nc(C)c3c(n2)CCCC3)C[C@@H]1C1CC1 | -11.2 |
| CCn1cnnc1CCNCc1c[nH]nc1-c1ccc(F)cc1 | 5.79 |
| Cn1c(Cn2cccn2)nnc1C1CCN(Cc2ccccc2Cl)CC1 | -4.12 |
| Cc1cccc(-c2nc(N)nc3c2CN(C(=O)c2ccncn2)C3C)c1 (stereo not drawn) | -18.2 |
| Cc1ccncc1C(=O)N1C[C@H]2CN(CC3CCC3)C[C@@]2(C(=O)O)C1 | -8.6 |
| CN1CCC(n2nc(Cc3cccc(Cl)c3)nc2Cn2ccnc2)CC1 | -8.49 |
| COc1cccc(OC2CN(C(=O)CCn3cnc4ccccc43)C2)c1 | 29.2 |

| SMILES | cytotoxicity at 70.5 h [%] |
| --- | --- |
| Cc1ccc([C@@H]2CN(C(=O)c3cc(C)n[nH]3)C[C@H]2NC(=O)C2CC2)cc1 | 6.77 |
| CC(C)c1nc(CCN(C)c2nccc(N3CCCC(O)C3)n2)no1 (stereo not drawn) | -8.03 |
| CCc1ccc(CN2CCOC(Cc3cccc(F)c3)C2)nc1 (stereo not drawn) | -5.34 |
| CC1(C)CNC(=O)c2nc(CCN3CCC(O)CC3)[nH]c2C1 | -1.47 |
| OC1CCN(CCNc2ncc3c(n2)CCN3c2ccccc2)CC1 | -7.98 |
| O=C(c1cccc(-n2cccn2)c1)N1CCCOC(CN2CCCC2)C1 (stereo not drawn) | 0.244 |
| CC(=O)Nc1ccc(Cl)c(C(=O)N(C)Cc2nc(C)c[nH]2)c1 | -8.28 |
| COc1cccc(Cl)c1C(C(=O)O)N1CCC(Cn2cccn2)CC1 (stereo not drawn) | 17.9 |
| O=C(NC1CCCN(CCCc2ccccc2)C1)c1ccc(Cl)s1 (stereo not drawn) | -4.66 |
| Cc1ccc(F)c(NC(=O)CCC(=O)N(C)Cc2nc(C)c[nH]2)c1 | -5.55 |
| COc1ccc2c(C)c(C(=O)NCC3CN(S(C)(=O)=O)CCO3)oc2c1 (stereo not drawn) | 16.6 |
| O=C(CO)N1CCCC(N2CCN(c3ccccc3F)CC2)C1 (stereo not drawn) | -0.739 |
| CC(C)N1C(=O)C2(CCN(C)CC2)c2cc(F)ccc21 | -7.44 |
| CC(C)CN1CCc2[nH]nc(C(=O)N3CCCC3)c2C1 | 28.7 |
| Cc1ccsc1C(=O)N1CCc2ncc(CN3CCCC3)n2CC1 | -4.02 |
| O=C1COC2(COCCN(c3ccccn3)C2)CN1c1cccc(F)c1 (stereo not drawn) | -9.76 |
| CN1C(=O)CC(c2ccncc2)C12CCN(c1ncccn1)CC2 (stereo not drawn) | -0.583 |
| CN1CC[C@@H]2[C@@H](CO[C@H]2CNC(=O)c2nccn2C)C1 | -4.99 |
| COc1ccccc1CN1CC[C@]2(C[C@@H](OCC(=O)N(C)C)CO2)C1 | -3.75 |
| CC(=O)c1ccc(NC(=O)c2ccc3c(c2)C2(CCCCC2)CN3)cc1 | -9.32 |
